# Measured values as given in article PMC9109057, “Designing Self‐Assembling Chimeric Peptide Nanoparticles with High Stability for Combating Piglet Bacterial Infections” (Advanced Science, 2022).
# Where a SMILES comes first, the peptide text is derived from it. [ ]: non-standard residue; d: D form. The star is where a group is joined. PEG8 = NCCOCCOCCOCCOCCOCCOCCOCCOCCC(=O)O; Myristoyl = CCCCCCCCCCCCCC(=O)*
# What was measured:
# [1] = test system: porcine red blood cells; type: cell-based; conditions: pH 7.4
# Method: Fresh porcine red blood cells were used to study the hemolysis of self‐assembled peptide nanoparticles.^[ [48] ^] The red blood cells were collected by washing with PBS (10 × 10^−3 M, pH 7.4) until the supernatant became clear. A 10% v/v red blood cell suspension was prepared with PBS, and peptide nanoparticles with a final concentration of 128 × 10^−6 M were added to the suspension (1 mL). After gentle incubation at 37 °C for 2 h, the cells were centrifuged at 6000 rpm for 5 min, and the absorbance of the supernatant was measured at 570 nm. Two red blood cell suspensions (one containing 0.2% Triton X‐100, the other without peptide nanoparticles) were used as positive and negative controls, respectively. The hemolysis of each sample was calculated, and images were collected.
# [2] = test system: trypsin; assay: Protease stability assay (MIC and RP-HPLC read-out); type: in vitro ADME; conditions: equal volumes of peptide 2560 × 10^−6 M and trypsin 8 mg mL^−1, 37 °C, 1 h; MIC vs E. coli ATCC25922 and S. aureus ATCC6538; n = 6
# Method: (§1) An equal volume of peptide nanoparticles (2560 × 10^−6 M) and pepsin, trypsin, or chymotrypsin (8 mg mL^−1) was mixed and incubated at 37 °C for 1 h. Then, the MICs of peptide nanoparticles against E. coli ATCC25922 and S. aureus ATCC6538 were measured using the above‐mentioned method. Each test was performed in duplicate and repeated three times.
# (§2) For RP‐HPLC, an equal volume of peptide nanoparticles (2560 × 10^−6 M) and pepsin, trypsin, or chymotrypsin (4 or 8 mg mL^−1) was mixed. The mixed solution was incubated at 37 °C for a predetermined time (0, 2, 4, or 8 h), and the protease was completely inactivated by heating in boiling water at 100 °C for 5 min. The concentration of peptide nanoparticles in the samples was then diluted to 256 × 10^−6 M, and the samples were analyzed using an RP‐HPLC system equipped with an Acchorm Unitary C18 column (5 µm, 100 Å, 4.6 mm × 250 mm). A gradient of 42% to 96% acetonitrile in water with 0.1% trifluoroacetic acid was used as the mobile phase at a flow rate of 0.8 mL min^−1. UV detection was performed at a wavelength of 214 nm.
# [3] = target: T1, pepsin (Sus scrofa, UniProt P00791); assay: as above; type: in vitro ADME; conditions: for Antibacterial activity (MIC) after treatment with pepsin: equal volumes of peptide 2560 × 10^−6 M and pepsin 8 mg mL^−1, 37 °C, 1 h, MIC vs E. coli ATCC25922 and S. aureus ATCC6538, n = 6; for RP-HPLC peak shape and area after treatment with pepsin: pepsin 4 or 8 mg mL^−1, 37 °C, 8 h vs 0 h control, C18 RP-HPLC, UV 214 nm
# T1 construct: purchased Sigma-Aldrich (China)
# Method: as §1, §2
# [4] = target: T2, chymotrypsin (Bos taurus, UniProt P00766); assay: as above; type: in vitro ADME; conditions: equal volumes of peptide 2560 × 10^−6 M and chymotrypsin 8 mg mL^−1, 37 °C, 1 h; MIC vs E. coli ATCC25922 and S. aureus ATCC6538; n = 6
# T2 construct: purchased Sigma-Aldrich (China)
# Method: as §1, §2
# [5] = test system: P. aeruginosa 27853; type: cell-based
# Method: (§3) The MICs of the self‐assembling peptide nanoparticles were determined using the modified broth microdilution method.^[ [46] ^] The bacteria were resuspended in a logarithmic growth phase in a Mueller–Hinton broth (MHB) medium, the optical density (OD) at a wavelength of 600 nm was adjusted to ≈ 0.4, and the suspension was diluted 1000 times with MHB. In a 96‐well plate, the peptides were diluted via multiple dilutions using a 0.2% bovine serum albumin solution to a concentration range of 0.25 × 10^−6–128 × 10^−6 M. Subsequently, the diluted bacterial solution and peptide solution were mixed in a 1:1 ratio in a 96‐well plate and incubated at 37 °C. After 18–24 h, the absorbance at 492 nm was measured using a microplate reader. The MIC value was defined as the lowest peptide nanoparticle concentration without bacterial growth. Each test was performed in duplicate and repeated three times.
# [6] = test system: S. aureus ATCC6538; type: cell-based
# Method: as §3
# [7] = test system: E. coli ATCC25922; type: cell-based
# Method: as §3
# [8] = test system: HEK293T cells; assay: Cytotoxicity assay (MTT; SYTO9/PI live/dead imaging); type: cell-based, Human; conditions: 64 × 10^−6 M, 2 h, 37 °C, laser confocal microscope
# Method: 3‐(4,5‐dimethylthiazol‐2‐yl)‐2,5‐diphenyltetrazolium bromide (MTT) dye was used to determine the cytotoxicity of the peptide nanoparticles.^[ [47] ^] Human embryonic kidney (HEK) 293T cells were seeded into 96‐well plates at a concentration of (1–2) × 10^5 cells per well in high glucose DMEM and placed in a cell incubator (5% CO2, 37 °C) for 24 h. After discarding the medium, peptides (100 µL) were added with a concentration range of 0.125 × 10^−6–64 × 10^−6 M to wells 1–10 of a 96‐well plate and incubated at 37 ℃ for 2 h. Samples without peptides were used as positive controls and samples without cells were used as negative controls. Subsequently, 20 µL of MTT (5 mg mL^−1) was added to each well before another 4 h of incubation. After discarding the supernatant, 150 µL of dimethyl sulfoxide was added to each well of the 96‐well plate, to fully dissolve the crystals; then, the absorbance at a wavelength of 570 nm was measured using a microplate reader. Each test was performed in duplicate and repeated three times. Cell viability was expressed as a percentage. For laser confocal microscope samples, after the peptides (the final concentration is 64 × 10^−6 M) were added to a 96‐well plate, the final concentration of 5 × 10^−6 M SYTO9 and 20 µg mL^−1 PI dye was added to a 96‐well plate, and incubated at 37 ℃ for 2 h. Cells were imaged using a laser scanning confocal microscope. A sample without peptide nanoparticles was used as a control.
# [9] = test system: C57BL/6 mice; conditions: mouse, in vivo, ip
# Method: Healthy female C57BL/6 mice (weight is about 20 g) were randomly divided into five groups with six replicates per group. Mice were acclimated for 3 d in an environment of suitable temperature (20–24 °C), humidity (50–60%), and alternating light and dark. During the assay, the first group of mice was intraperitoneally injected with 150 µL of saline (once daily), and the second to fifth groups of mice were intraperitoneally injected with 150 µL nanoparticles NPs1 or NPs2 at doses of 15 and 30 mg kg^−1 (once daily). Continuous injection was given for 7 days. At 12 h after the last administration, the mice were euthanized using mild ether anesthesia. Blood samples were taken from the mice's orbital vein, and serum was analyzed using an automatic biochemical analyzer. The kidneys and livers of the mice were taken, weighed, and fixed with 4% paraformaldehyde; then, histological analysis was performed via H&E staining.
# [10] = test system: S. aureus CVCC1882; type: cell-based
# Method: as §3
# [11] = test system: C. rodentium DBS100; type: cell-based
# Method: as §3
# [12] = test system: S.epidermidis 49134; type: cell-based
# Method: as §3
# T1 sequence (P00791 60-385): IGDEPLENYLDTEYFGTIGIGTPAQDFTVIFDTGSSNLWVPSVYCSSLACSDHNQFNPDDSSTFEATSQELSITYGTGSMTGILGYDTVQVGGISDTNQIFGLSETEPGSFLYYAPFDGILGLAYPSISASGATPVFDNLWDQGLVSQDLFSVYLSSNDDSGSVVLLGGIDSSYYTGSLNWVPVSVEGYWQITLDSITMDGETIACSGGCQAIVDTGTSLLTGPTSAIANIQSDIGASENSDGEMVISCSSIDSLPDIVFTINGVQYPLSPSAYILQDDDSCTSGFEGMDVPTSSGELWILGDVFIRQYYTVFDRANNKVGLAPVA
SMILES,MHC [1],Antibacterial activity (MIC) after treatment with trypsin [2],Antibacterial activity (MIC) after treatment with pepsin [3],RP-HPLC peak shape and area after treatment with pepsin [3],Antibacterial activity (MIC) after treatment with chymotrypsin [4],MIC P. aeruginosa 27853 [5] [µM],MIC S. aureus 6538 [6] [µM],MIC E. coli 25922 [7] [µM],Live/dead (SYTO9/PI) imaging of HEK293T cells [8],Side effects on mice [9],MIC S. aureus 1882 [10] [µM],MIC C. rodentium DBS100 [11] [µM],MIC S.epidermidis 49134 [12] [µM]
CCCCCCCCCCCCCC(=O)N1CCC[C@H]1C(=O)N[C@@H](Cc1ccccc1)C(=O)N1CCC[C@H]1C(=O)N[C@@H](Cc1ccccc1)C(=O)N1CCC[C@H]1C(=O)N[C@@H](Cc1ccccc1)C(=O)N1CCC[C@H]1C(=O)N[C@@H](CCCCNC(=O)CCOCCOCCOCCOCCOCCOCCOCCOCCN)C(=O)N1CCC[C@H]1C(=O)N[C@@H](CCCCN)C(=O)N1CCC[C@H]1C(=O)N[C@@H](CCCCN)C(=O)N1CCC[C@H]1C(=O)N[C@@H](CCCCN)C(=O)N1CCC[C@H]1C(=O)N[C@@H](CCCCN)C(=O)N1CCC[C@H]1C(=O)N[C@@H](CCCCN)C(=O)N1CCC[C@H]1C(N)=O [NPs1] (Myristoyl-PFPFPFPK(PEG8)PKPKPKPKPKP-NH2),> 128,remained essentially unchanged,remained essentially unchanged,remained intact,remained essentially unchanged,12.0 ± 4.0,5.3 ± 1.9,9.3 ± 3.0,only led to a few cell deaths,negligible,,,
CCCCCCCCCCCCCC(=O)N1CCC[C@H]1C(=O)N[C@@H](Cc1ccccc1)C(=O)N1CCC[C@H]1C(=O)N[C@@H](Cc1ccccc1)C(=O)N1CCC[C@H]1C(=O)N[C@@H](Cc1ccccc1)C(=O)N1CCC[C@H]1C(=O)N[C@@H](CCCCN)C(=O)N1CCC[C@H]1C(=O)N[C@@H](CCCCN)C(=O)N1CCC[C@H]1C(=O)N[C@@H](CCCCN)C(=O)N1CCC[C@H]1C(=O)N[C@@H](CCCCN)C(=O)N1CCC[C@H]1C(=O)N[C@@H](CCCCN)C(=O)N1CCC[C@H]1C(=O)N[C@@H](CCCCNC(=O)CCOCCOCCOCCOCCOCCOCCOCCOCCN)C(=O)N1CCC[C@H]1C(N)=O [NPs2] (Myristoyl-PFPFPFPKPKPKPKPKPK(PEG8)P-NH2),> 128,remained essentially unchanged,remained essentially unchanged,remained intact,remained essentially unchanged,13.3 ± 3.8,6.7 ± 1.9,8,only led to a few cell deaths,negligible,10.0 ± 4.5,6.7 ± 1.9,9.3 ± 3.0
CCCCCCCCCCCCCC(=O)N1CCC[C@H]1C(=O)N[C@@H](Cc1ccccc1)C(=O)N1CCC[C@H]1C(=O)N[C@@H](Cc1ccccc1)C(=O)N1CCC[C@H]1C(=O)N[C@@H](Cc1ccccc1)C(=O)N1CCC[C@H]1C(=O)N[C@@H](CCCCN)C(=O)N1CCC[C@H]1C(=O)N[C@@H](CCCCN)C(=O)N1CCC[C@H]1C(=O)N[C@@H](CCCCN)C(=O)N1CCC[C@H]1C(=O)N[C@@H](CCCCN)C(=O)N1CCC[C@H]1C(=O)N[C@@H](CCCCN)C(=O)N1CCC[C@H]1C(=O)N[C@@H](CCCCN)C(=O)N1CCC[C@H]1C(=O)NCCOCCOCCOCCOCCOCCOCCOCCOCCC(N)=O [NPs3] (Myristoyl-PFPFPFPKPKPKPKPKPKP[PEG8]-NH2),> 128,,,,,21.3 ± 7.5,7.3 ± 1.5,9.3 ± 3.0,only led to a few cell deaths,,14.7 ± 3.0,,9.3 ± 3.0
